Results taken from ChEMBL document CHEMBL5226288, “A perspective on medicinal chemistry approaches towards adenomatous polyposis coli and Wnt signal based colorectal cancer inhibitors” (Eur J Med Chem, 2021).

Tests used:
Mus musculus = species: Mus musculus; experiment: Anticancer activity against C57BL/6J mouse small intestine organoid assessed as decrease in cell growth and measured after 4 days by qPCR analysis; assay type: functional; details: 96 h
DLD-1 [1] = experiment: Antiproliferative activity against human DLD-1 cells assessed as reduction in cell proliferation; assay type: functional, cell-based
SW480 [2] = experiment: Antiproliferative activity against human SW480 cells assessed as reduction in cell proliferation; assay type: functional, cell-based
HCT-116 [3] = experiment: Antiproliferative activity against human HCT-116 cells assessed as decrease in cell growth incubated for 24 hrs by MTS assay; assay type: functional, cell-based; details: HCT-116, 24 h
DLD-1 [4] = experiment: Antiproliferative activity against human DLD-1 cells assessed as reduction in cell viability by MTS assay; assay type: functional, cell-based
HCT-116 [5] = experiment: Antiproliferative activity against human HCT-116 cells assessed as reduction in cell viability; assay type: functional, cell-based
SW480 [6] = experiment: Antiproliferative activity against human SW480 cells assessed as reduction in cell viability; assay type: functional, cell-based
HCT-116 [7] = experiment: Antiproliferative activity against human HCT-116 cells assessed as reduction in cell proliferation incubated for 24 hrs by MTT assay; assay type: functional, cell-based; details: HCT-116, 24 h
SW480 [8] = experiment: Antiproliferative activity against human SW480 cells assessed as reduction in cell proliferation incubated for 24 hrs by MTT assay; assay type: functional, cell-based; details: SW480, 24 h
HCT-116 [9] = experiment: Cytotoxicity in human HCT-116 cells expressing wild type APC assessed as reduction in cell viability incubated for 96 hrs by Cell Titer-Glo assay; assay type: functional, cell-based; details: HCT-116, 96 h
DLD-1 [10] = experiment: Cytotoxicity in human DLD-1 cells expressing APC mutant assessed as reduction in cell viability incubated for 96 hrs by Cell Titer-Glo assay; assay type: functional, cell-based; details: DLD-1, 96 h
DLD-1 [11] = experiment: Anticancer activity against human DLD-1 cells assessed as reduction in cell viability; assay type: functional, cell-based
SW480 [12] = experiment: Anticancer activity against human SW480 cells assessed as reduction in cell viability; assay type: functional, cell-based
HCT-116 [13] = experiment: Anticancer activity against human HCT-116 cells assessed as reduction in cell growth incubated for 72 hrs by MTT assay; assay type: functional, cell-based; details: HCT-116, 72 h
DLD-1 [14] = experiment: Anticancer activity against human DLD-1 cells assessed as reduction in cell growth incubated for 72 hrs by MTT assay; assay type: functional, cell-based; details: DLD-1, 72 h
SW480 [15] = experiment: Anticancer activity against human SW480 cells assessed as reduction in cell growth incubated for 72 hrs by MTT assay; assay type: functional, cell-based; details: SW480, 72 h
LoVo = experiment: Antiproliferative activity against human LoVo cells assessed as decrease in cell viability by MTT assay; assay type: functional, cell-based
SW480 [16] = experiment: Anticancer activity against human SW480 cells assessed as decrease in cell growth incubated for 72 hrs by tryphan blue staining based cell counter analysis; assay type: functional; details: SW480, 72 h
HCT-116 [17] = experiment: Anticancer activity against human HCT-116 cells assessed as decrease in cell growth incubated for 72 hrs by tryphan blue staining based cell counter analysis; assay type: functional; details: HCT-116, 72 h
SW480 [18] = experiment: Anticancer activity against human SW480 cells assessed as reduction in cell viability incubated for 24 hrs by MTT assay; assay type: functional, cell-based; details: SW480, 24 h
HCT-116 [19] = experiment: Anticancer activity against human HCT-116 cells assessed as reduction in cell viability incubated for 24 hrs by MTT assay; assay type: functional, cell-based; details: HCT-116, 24 h

CS(=O)(=O)c1ccccc1N1CCN(c2nc(O)c3c(n2)CCSC3)CC1
IC50 (Mus musculus): 0.11 µM

O=C(O)c1ccc(-n2nc(-c3ccccc3O)nc2-c2ccccc2O)cc1 [DEFERASIROX]
IC50 (DLD-1 [1]): 3.4 µM | IC50 (SW480 [2]): 3.9 µM

CC(=O)N(O)CCCCCNC(=O)CCC(=O)N(O)CCCCCNC(=O)CCC(=O)N(O)CCCCCN [DEFEROXAMINE]
IC50 (DLD-1 [1]): 2.9 µM | IC50 (SW480 [2]): 3.8 µM

O=C(O[C@@H]1Cc2c(O)cc(O)cc2O[C@@H]1c1cc(O)c(O)c(O)c1)c1cc(O)c(O)c(O)c1 [EPIGALOCATECHIN GALLATE]
IC50 (HCT-116 [3]): 5 µM

O=c1c(-c2ccc(O)cc2)coc2cc(O)cc(O)c12 [GENISTEIN]
IC50 (DLD-1 [4]): 50 µM

CC(C)=CCc1c(O)ccc(C(=O)/C=C/c2ccc(O)cc2)c1O [ISOBAVACHALCONE]
IC50 (HCT-116 [5]): 75.5 µM | IC50 (SW480 [6]): 44.1 µM

CC1(C)C=Cc2c(ccc(C(=O)/C=C/c3ccccc3)c2O)O1 [LONCHOCARPIN]
IC50 (HCT-116 [7]): 20 µM | IC50 (SW480 [8]): 20 µM

CC[C@H](C)C(=O)O[C@H]1CCC=C2C=C[C@H](C)[C@H](CC[C@@H]3C[C@@H](O)CC(=O)O3)[C@H]21 [MEVASTATIN]
IC50 (HCT-116 [9]): 18.6 µM | IC50 (DLD-1 [10]): 3.2 µM

S=C=NCCc1ccccc1 [PHENETHYLISOTHIOCYANATE]
IC50 (DLD-1 [11]): 54.6 µM | IC50 (SW480 [12]): 35.6 µM

O=C(/C=C/C=C/c1ccc2c(c1)OCO2)N1CCCCC1 [PIPERINE]
IC50 (HCT-116 [13]): < 200 µM | IC50 (DLD-1 [14]): < 200 µM | IC50 (SW480 [15]): < 200 µM

Oc1ccc(/C=C/c2cc(O)cc(O)c2)cc1 [RESVERATROL]
IC50 (LoVo): 55 µM

COc1cc(C2Oc3cc([C@H]4Oc5cc(O)cc(O)c5C(=O)[C@@H]4O)ccc3OC2CO)ccc1O (stereo partly drawn) [SILIBININ]
IC50 (SW480 [16]): 50 µM | IC50 (HCT-116 [17]): 50 µM

CC1=C(CO)C(=O)O[C@@H]([C@@H](C)[C@H]2CC[C@H]3[C@@H]4C[C@H]5O[C@]56[C@@H](O)C=CC(=O)[C@]6(C)[C@H]4CC[C@]23C)C1 [WITHAFERIN A]
IC50 (SW480 [18]): 4.9 µM | IC50 (HCT-116 [19]): 3.7 µM
